This note sets out measurements from patent publication US9975852B2, “Quinoline sulfonyl derivatives and uses thereof” (Health Sciences North Research Institute, priority 2013, dated 2018).

SMILES strings stand for the structures. Where two headings read alike, the source gives them in different places.

The subject of one data set is MDA-MB231. The data set can be described thus: SRB antiproliferative assay, MDA-MB231. The class given is cell-based, human. To be noted: Homo sapiens, MDA-MB-231, 48 h. As for the experimental part: (§1) Antiproliferative effects were determined by a sulforhodamine B (SRB) based protocol. For a typical screening experiment, 5,000-10,000 cells were inoculated into 100 μl medium per well of a 96-well microtiter plate as described previously. […] Some of the sample wells were fixed with 25 μl of 50% trichloroacetic acid (TCA) as a control of the cell population for each cell line at the time of drug addition (Tz). An aliquot of the frozen stock was thawed and diluted to the desired final maximum test-concentration with complete medium. Two to ten-fold serial dilutions were made to provide a total of seven drug concentrations (and a control [C]). Following addition of drugs, the culture plate was incubated for additional 48 h. Cells were fixed in situ by slowly adding 25 μl of ice-cold 50% (w/v) TCA (final concentration, 10% TCA), and were then incubated for 60 min at 4° C. The supernatant was discarded, and the plate was washed five times with tap water, followed by air-dry. 50 μl of SRB solution at 0.4% (w/v) in 1% acetic acid was added to each well, and the plate was incubated for >30 min at room temperature. Unbound SRB was removed by five washes with tap water, followed by air-drying. […] The relative growth rate (%) was calculated for each of the compound concentrations according to the following formula: (Ti−Tz)/(C−Tz)×100 In the formula, time zero (Tz), control growth (C), and OD for different concentration of tested compounds (Ti). The GI50 for each compound was obtained from a non-linear Sigmoidal dose-response (variable slope) curve which is fitted by GraphPad Prism™ v.4.03 software. Values were calculated for each of these parameters if the level of activity was reached. However, if the effect was not reached or was exceeded, the value for that parameter was expressed as greater or less than the maximum or minimum concentration tested. Flow Cytometry

The next data set relates to MCF7. The data set can be described thus: SRB antiproliferative assay, MCF7. Conditions: Homo sapiens, MCF7; SRB, 48 h; read-out: GI50 MCF7. The class given is cell-based, human. As for the experimental part:
as §1

A further data set deals with 184B5. Kind of data set: SRB antiproliferative assay, 184B5 non-cancer breast cells. To be noted: Homo sapiens, read-out: GI50 184B5. It is filed as cell-based, human. As for the experimental part:
as §1

Another data set relates to MDA-MB468. Kind of data set: SRB antiproliferative assay, MDA-MB468. It is filed as cell-based, human. Conditions: Homo sapiens, MDA-MB-468, 48 h. The method, then: as §1

Consider `Cc1ccc(S(=O)(=O)N2CCN(c3ccnc4cc(C(F)(F)F)ccc34)CC2)cc1` [Compound 8, 4-[4-(Toluene-4-sulfonyl)-piperazin-1-yl]-7-trifluoromethyl-quinoline], for which the melting point was in the range of 126 to 128 °C. The compound also showed a GI50 with MDA-MB231 of 42.7 ± 0.83 µM. Further, the GI50 in the data set with MCF7 came out at 20.8 ± 0.23 µM. Further, the GI50 in the data set with 184B5 (184B5, SRB, 48 h) was found to be 13 ± 0.14 µM. Also, in the data set on MDA-MB468, it took 36.5 ± 0.75 µM to inhibit growth by half (GI50).
The like results for `O=S(=O)(c1ccc(-c2ccccc2)cc1)N1CCN(c2ccnc3cc(C(F)(F)F)ccc23)CC1` [Compound 9, 4-[4-(Biphenyl-4-sulfonyl)-piperazin-1-yl]-7-trifluoromethyl-quinoline] were, in that order, 148 to 150 °C, 27.2 ± 0.61 µM, 14.8 ± 0.19 µM, 19.1 ± 0.24 µM and 20.5 ± 0.54 µM.
The like results for `O=S(=O)(c1ccc(Cl)cc1Cl)N1CCN(c2ccnc3cc(C(F)(F)F)ccc23)CC1` [Compound 10, 4-[4-(2,4-Dichloro-benzenesulfonyl)-piperazin-1-yl]-7-trifluoromethyl-quinoline] were, in that order, 137 to 139 °C, 20.3 ± 0.53 µM, 16.7 ± 0.19 µM, 20.4 ± 0.23 µM and 18.6 ± 0.55 µM.
For `CS(=O)(=O)N1CCN(c2ccnc3cc(C(F)(F)F)ccc23)CC1` [Compound 11, 4-(4-Methanesulfonyl-piperazin-1-yl)-7-trifluoromethyl-quinoline] the same measures were 116 to 118 °C, 44.4 ± 0.85 µM, 25.6 ± 0.26 µM, 93.93 ± 0.89 µM and 28.6 ± 0.69 µM.
The compound `O=[N+]([O-])c1ccc(S(=O)(=O)N2CCN(c3ccnc4cc(C(F)(F)F)ccc34)CC2)c([N+](=O)[O-])c1` [Compound 12, 4-[4-(2,4-Dinitro-benzenesulfonyl)-piperazin-1-yl]-7-trifluoromethyl-quinoline] showed a melting point of 178 to 180 °C. In the data set with MDA-MB231, this compound yielded a 50% growth inhibitory concentration (GI50) of 24.3 ± 0.63 µM. Also, the GI50 in the data set on MCF7 came to 10.8 ± 0.12 µM. Moreover, the GI50 in the data set on 184B5 (184B5, 48 h) turned out to be 37.78 ± 0.35 µM. The concentration for 50% growth inhibition (GI50) in the data set with MDA-MB468 worked out at 19.2 ± 0.61 µM.
On to `CN(C)c1cccc2c(S(=O)(=O)N3CCN(c4ccnc5cc(C(F)(F)F)ccc45)CC3)cccc12` [Compound 13, Dimethyl-{5-[4-(7-trifluoromethyl-quinolin-4-yl)-piperazine-1-sulfonyl]-naphthalen-1-yl}-amine], for which the melting point lay in the range of 98 to 100 °C. In the data set with MDA-MB231, this compound had a GI50 of 22 ± 0.59 µM. In the data set on MCF7, the concentration for 50% growth inhibition (GI50) worked out at 12.8 ± 0.21 µM. In addition, in the data set on 184B5 (184B5, SRB, 48 h), the 50% growth inhibitory concentration (GI50) stood at 12 ± 0.15 µM. For the same compound, the concentration for 50% growth inhibition (GI50) in the data set with MDA-MB468 worked out at 19 ± 0.55 µM.
For `COC(=O)c1sccc1S(=O)(=O)N1CCN(c2ccnc3cc(C(F)(F)F)ccc23)CC1` [Compound 14, 3-[4-(7-Trifluoromethyl-quinolin-4-yl)-piperazine-1-sulfonyl]-thiophene-2-carboxylic acid methyl ester] the same measures were 117 to 119 °C, 34.7 ± 0.71 µM, 16 ± 0.24 µM, 15.88 ± 0.14 µM and 23.9 ± 0.64 µM.
In turn, `O=[N+]([O-])c1ccc(S(=O)(=O)NCCCNc2ccnc3cc(Cl)ccc23)c([N+](=O)[O-])c1` [Compound 17, N-[3-(7-Chloro-quinolin-4-ylamino)-propyl]-2,4-dinitro-benzenesulfonamide] had a melting point of 238 to 240 °C. The compound further had a GI50 in the data set on MDA-MB231 of 8.85 ± 0.71 µM. For the same compound, the 50% growth inhibitory concentration (GI50) in the data set on MCF7 stood at 6.16 ± 0.32 µM. Further, the concentration for 50% growth inhibition (GI50) in the data set with 184B5 (184B5, 48 h) is 9.09 ± 0.56 µM. Further, growth with MDA-MB468 was halved (GI50) at 7.35 ± 0.23 µM.
For the compound `O=S(=O)(NCCCNc1ccnc2cc(Cl)ccc12)c1ccc(-c2ccccc2)cc1` [Compound 20, Biphenyl-4-sulfonic acid [3-(7-chloro-quinolin-4-ylamino)-propyl]-amide], the melting point was 116 to 118 °C. The 50% growth inhibitory concentration (GI50) with MDA-MB231 came to 4.63 ± 0.42 µM. Also, the GI50 in the data set on MCF7 was 2.47 ± 0.23 µM. Also, the GI50 in the data set on 184B5 (184B5, SRB, 48 h) was found to be 2.41 ± 0.09 µM. The compound further gave a 50% growth inhibitory concentration (GI50) with MDA-MB468 of 4.46 ± 0.37 µM.
For `O=S(=O)(NCCCNc1ccnc2cc(Cl)ccc12)c1ccc(Cl)cc1Cl` [Compound 21, 2,4-Dichloro-N-[3-(7-chloro-quinolin-4-ylamino)-propyl]-benzenesulfonamide] the same measures were 145 to 147 °C, 6.76 ± 0.55 µM, 4.04 ± 0.22 µM, 3.55 ± 0.21 µM and 3.61 ± 0.12 µM.
In turn, `CS(=O)(=O)NCCCNc1ccnc2cc(C(F)(F)F)ccc12` [Compound 23, N-[3-(7-Trifluoromethyl-quinolin-4-ylamino)-propyl]-methanesulfonamide] had a melting point of 171 to 173 °C. In addition, it took 55.9 ± 1.56 µM to inhibit growth in the data set on MDA-MB231 by half (GI50). The GI50 with MCF7 was found to be 25.3 ± 1.23 µM. For the same compound, in the data set with 184B5 (184B5, SRB, 48 h), the GI50 worked out at 59.5 ± 1.56 µM. In the data set on MDA-MB468, this compound registered a GI50 of 30.4 ± 0.99 µM.
The like results for `Cc1ccc(S(=O)(=O)NCCCNc2ccnc3cc(C(F)(F)F)ccc23)cc1` [Compound 24, 4-Methyl-N-[3-(7-trifluoromethyl-quinolin-4-ylamino)-propyl]-benzenesulfonamide] were, in that order, 77 to 79 °C, 6.36 ± 0.48 µM, 6.9 ± 0.45 µM, 12.2 ± 0.86 µM and 6.21 ± 0.42 µM.
`O=[N+]([O-])c1ccc(S(=O)(=O)NCCCNc2ccnc3cc(C(F)(F)F)ccc23)c([N+](=O)[O-])c1` [Compound 25, 2,4-Dinitro-N-[3-(7-trifluoromethyl-quinolin-4-ylamino)-propyl]-benzenesulfonamide]: the melting point lay in the range of 198 to 200 °C. The compound further registered a GI50 in the data set with MDA-MB231 of 8.91 ± 0.77 µM. In addition, the concentration for 50% growth inhibition (GI50) with MCF7 was determined as 5.56 ± 0.34 µM. In addition, in the data set with 184B5 (184B5, 48 h), the concentration for 50% growth inhibition (GI50) came to 15.9 ± 0.89 µM. The same compound yielded a GI50 with MDA-MB468 of 8.46 ± 0.41 µM.
For `O=[N+]([O-])c1cccc(S(=O)(=O)NCCCNc2ccnc3cc(C(F)(F)F)ccc23)c1` [Compound 26, 3-Nitro-N-[3-(7-trifluoromethyl-quinolin-4-ylamino)-propyl]-benzenesulfonamide], the melting point lay within 98 to 100 °C. The compound also displayed a 50% growth inhibitory concentration (GI50) with MDA-MB231 of 15.8 ± 0.95 µM. The GI50 in the data set with MCF7 is 8.25 ± 0.52 µM. For the same compound, the 50% growth inhibitory concentration (GI50) in the data set with 184B5 (184B5, SRB, 48 h) came to 8.01 ± 0.76 µM. Further, it took 9.09 ± 0.57 µM to inhibit growth in the data set with MDA-MB468 by half (GI50).
For `O=S(=O)(NCCCNc1ccnc2cc(C(F)(F)F)ccc12)c1ccc(Cl)cc1` [Compound 27, 4-Chloro-N-[3-(7-trifluoromethyl-quinolin-4-ylamino)-propyl]-benzenesulfonamide] the same measures were 70 to 72 °C, 12.8 ± 0.88 µM, 5.44 ± 0.34 µM, 7.63 ± 0.43 µM and 10.3 ± 0.56 µM.
For `CN(C)c1cccc2c(S(=O)(=O)NCCCNc3ccnc4cc(C(F)(F)F)ccc34)cccc12` [Compound 28, 5-Dimethylamino-naphthalene-1-sulfonic acid [3-(7-trifluoromethyl-quinolin-4-ylamino)-propyl]-amide] the same measures were 199 to 201 °C, 14.2 ± 0.98 µM, 7.73 ± 0.61 µM, 3.73 ± 0.21 µM and 9.71 ± 0.33 µM.
For `O=S(=O)(NCCCNc1ccnc2cc(C(F)(F)F)ccc12)c1ccc(-c2ccccc2)cc1` [Compound 29, Biphenyl-4-sulfonic acid [3-(7-trifluoromethyl-quinolin-4-ylamino)-propyl]-amide] the same measures were 110 to 112 °C, 6.03 ± 0.38 µM, 3.6 ± 0.27 µM, 2.82 ± 0.05 µM and 4.19 ± 0.23 µM.
Compound `O=S(=O)(NCCCNc1ccnc2cc(C(F)(F)F)ccc12)c1ccc(Cl)cc1Cl` [Compound 30, 2,4-Dichloro-N-[3-(7-trifluoromethyl-quinolin-4-ylamino)-propyl]-benzenesulfonamide] returned a melting point of 117 to 119 °C. The compound also displayed a GI50 in the data set on MDA-MB231 of 6.97 ± 0.54 µM. The GI50 with MCF7 amounted to 5.18 ± 0.29 µM. Besides, in the data set on 184B5 (184B5, SRB, 48 h), the concentration for 50% growth inhibition (GI50) was determined as 3.22 ± 0.08 µM. The compound further registered a GI50 in the data set with MDA-MB468 of 3.94 ± 0.12 µM.
The compound `COC(=O)c1sccc1S(=O)(=O)NCCCNc1ccnc2cc(C(F)(F)F)ccc12` [Compound 31, N-(3-(7-Trifluoromethyl-quinolin-4-ylamino)propyl)thiophene-3-sulfonamide-2-carbomethoxy ester] came in with a melting point of 137 to 139 °C. The 50% growth inhibitory concentration (GI50) with MDA-MB231 stood at 7.48 ± 0.63 µM. For the same compound, the 50% growth inhibitory concentration (GI50) in the data set with MCF7 is 4.33 ± 0.23 µM. For the same compound, in the data set on 184B5 (184B5, SRB, 48 h), the GI50 was found to be 12.1 ± 0.45 µM. The same compound came in with a GI50 with MDA-MB468 of 4.55 ± 0.25 µM.
